For this test, the target named is T1, Human TRPC6 (Homo sapiens, UniProt Q9Y210).
T1 construct: expressed in transfected cells
T1 sequence (Q9Y210 1-931): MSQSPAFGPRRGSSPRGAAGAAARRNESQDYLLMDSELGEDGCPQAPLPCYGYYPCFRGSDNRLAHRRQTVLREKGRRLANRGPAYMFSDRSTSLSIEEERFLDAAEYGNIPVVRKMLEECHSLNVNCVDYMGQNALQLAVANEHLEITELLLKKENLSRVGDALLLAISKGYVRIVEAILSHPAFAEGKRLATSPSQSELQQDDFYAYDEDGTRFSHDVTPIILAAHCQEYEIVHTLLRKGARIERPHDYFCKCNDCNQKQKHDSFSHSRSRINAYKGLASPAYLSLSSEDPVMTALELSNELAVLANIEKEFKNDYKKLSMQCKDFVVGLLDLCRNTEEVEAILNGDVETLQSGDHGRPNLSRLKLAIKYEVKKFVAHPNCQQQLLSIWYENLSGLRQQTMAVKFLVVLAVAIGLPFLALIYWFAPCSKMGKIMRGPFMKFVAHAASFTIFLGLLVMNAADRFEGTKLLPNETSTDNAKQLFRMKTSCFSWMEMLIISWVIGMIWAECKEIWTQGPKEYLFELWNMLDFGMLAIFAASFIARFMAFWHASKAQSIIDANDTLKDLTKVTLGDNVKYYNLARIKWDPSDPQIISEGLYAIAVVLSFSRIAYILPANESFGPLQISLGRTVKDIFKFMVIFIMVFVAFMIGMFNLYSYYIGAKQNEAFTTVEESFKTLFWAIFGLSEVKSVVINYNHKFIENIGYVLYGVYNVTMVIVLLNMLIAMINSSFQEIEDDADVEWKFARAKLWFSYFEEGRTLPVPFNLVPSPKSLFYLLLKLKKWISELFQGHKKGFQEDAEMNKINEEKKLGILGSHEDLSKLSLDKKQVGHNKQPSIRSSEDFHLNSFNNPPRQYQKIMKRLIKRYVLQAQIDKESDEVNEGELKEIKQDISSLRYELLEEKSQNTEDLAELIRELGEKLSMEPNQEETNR
As to the kind of experiment: Evaluation of TRPC6 channel inhibitory activity (1), FLIPR Calcium 5 Assay Kit, OAG stimulation (Compound Nos. 1-1293). The format is cell-based. The conditions noted are these: Human TRPC6 stably-expressing cells, OAG 30 μM, FLIPR Calcium 5 Assay Kit; read-out: Inhibitory activity (pIC50 class) (converted). In a few lines:
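Stable human TRPC6 line; fluorescent Ca2+ dye loading, then 20 min compound exposure before 30 μM OAG trigger. Peak-minus-baseline signal converted to % inhibition against untreated and unstimulated wells; potency given as pIC50 band.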
As for `Cn1nc(C(F)(F)F)cc1Oc1cc(C#N)ccc1-c1ncc(CN)cn1` [Compound No. 811, 4-[5-(Aminomethyl)pyrimidin-2-yl]-3-[2-methyl-5-(trifluoromethyl)pyrazol-3-yl]oxybenzonitrile], the IC50 is below 10 nM. `Cc1ccc(-c2cc(Oc3cc(C#N)ccc3-c3ccc(CCN)cc3)n(C)n2)nc1` [Compound 164, 4-[4-(2-aminoethyl)phenyl]-3-[2-methyl-5-(5-methylpyridin-2-yl)pyrazol-3-yl]oxybenzonitrile]: the IC50 is below 10 nM. Take `N#Cc1ccc(-c2ncc(CN)cn2)c(C(=O)c2sc(N3CCOCC3)nc2C(F)(F)F)c1` [compound 1087, 4-[5-(aminomethyl)pyrimidin-2-yl]-3-[2-morpholin-4-yl-4-(trifluoromethyl)-1,3-thiazole-5-carbonyl]benzonitrile]: the IC50 was below 10 nM. On to `Cc1c(Oc2cc(C#N)ccc2-c2ncc(CCN)cn2)cnn1CC(F)(F)F` [compound 836, 4-[5-(2-aminoethyl)pyrimidin-2-yl]-3-[5-methyl-1-(2,2,2-trifluoroethyl)pyrazol-4-yl]oxybenzonitrile], for which the IC50 was 10 to 1000 nM. In the case of `CN(C)c1cc(Oc2cc(C#N)ccc2-c2ncc(CCN)cn2)n(C)n1` [compound 629, 4-[5-(2-aminoethyl)pyrimidin-2-yl]-3-[5-(dimethylamino)-2-methylpyrazol-3-yl]oxybenzonitrile], the IC50 is below 10 nM. The value for `Cc1cc(Oc2cc(C#N)ccc2-c2ccc(CCN)cn2)n(C)n1` [compound 299, 4-[5-(2-aminoethyl)pyridin-2-yl]-3-(2,5-dimethylpyrazol-3-yl)oxybenzonitrile] was below 10 nM. Take `Cc1cc(Oc2cc(C#N)ccc2-c2ccc([C@H](O)CN)cn2)cc(N2CCOCC2)n1` [compound 429, 4-[5-[(1S)-2-amino-1-hydroxyethyl]pyridin-2-yl]-3-(2-methyl-6-morpholin-4-ylpyridin-4-yl)oxybenzonitrile]: the IC50 was below 10 nM. The value for `N#Cc1ccc(-c2ncc(CCN)cn2)c(Cn2cc(-c3ccccc3)cn2)c1` [compound 1201, 4-[5-(2-aminoethyl)pyrimidin-2-yl]-3-[(4-phenylpyrazol-1-yl)methyl]benzonitrile] was 10 to 1000 nM. In the case of `N#Cc1ccc(-c2ccc(CN)cn2)c(Oc2cnnc(N3CCCCC3)c2)c1` [compound 697, 4-[5-(aminomethyl)pyridin-2-yl]-3-(6-piperidin-1-ylpyridazin-4-yl)oxybenzonitrile], the IC50 is below 10 nM. Next, `Cn1nc(C2CCOCC2)cc1Oc1cc(F)ccc1-c1ncc(CCN)cn1` [compound 1009, 2-[2-[4-fluoro-2-[2-methyl-5-(oxan-4-yl)pyrazol-3-yl]oxyphenyl]pyrimidin-5-yl]ethanamine]: 10 to 1000 nM; `CN(C)c1cc(Oc2cc(C#N)ccc2-c2ccc(CN)cn2)cnn1` [compound 698, 4-[5-(aminomethyl)pyridin-2-yl]-3-[6-(dimethylamino)pyridazin-4-yl]oxybenzonitrile]: 10 to 1000 nM.

As to `Cc1nc(Oc2cc(C#N)ccc2-n2cc(C(O)CN)cn2)cc(N2CCOCC2)n1` (stereo not drawn) [Compound 136, 4-[4-(2-amino-1-hydroxyethyl)pyrazol-1-yl]-3-(2-methyl-6-morpholin-4-ylpyrimidin-4-yl)oxybenzonitrile], the IC50 was 10 to 1000 nM. On to `N#Cc1ccc(-c2ccc(C(CN)C(F)(F)F)cc2)c(Oc2cnnc(N3CCOCC3)c2)c1` (stereo not drawn) [Compound 122, 4-[4-(3-amino-1,1,1-trifluoropropan-2-yl)phenyl]-3-(6-morpholin-4-ylpyridazin-4-yl)oxybenzonitrile], for which the IC50 was 10 to 1000 nM.

For the molecule `N#Cc1ccc(-c2ncc(CN)cn2)c(Oc2cnnc(-c3ccccn3)c2)c1` [compound 817, 4-[5-(aminomethyl)pyrimidin-2-yl]-3-(6-pyridin-2-ylpyridazin-4 yl)oxybenzonitrile], the IC50 is above 1000 nM. Next, `Cc1cc(Oc2cc(C#N)ccc2-c2ncc(CCN)cn2)cc(NC(C)C)n1` [compound 461, 4-[5-(2-aminoethyl)pyrimidin-2-yl]-3-[2-methyl-6-(propan-2-ylamino)pyridin-4-yl]oxybenzonitrile]: below 10 nM; `N#Cc1ccc(-n2ccc(CN)n2)c(Oc2cnnc(-c3ccccc3)c2)c1` [Compound 135, 4-[3-(aminomethyl)pyrazol-1-yl]-3-(6-phenylpyridazin-4-yl)oxybenzonitrile]: above 1000 nM. The value for `Cn1nc(C2CC2)cc1Oc1cc(C#N)ccc1-c1cc(OCCCN)ccn1` [compound 585, 4-[4-(3-aminopropoxy)pyridin-2-yl]-3-(5-cyclopropyl-2-methylpyrazol-3-yl)oxybenzonitrile] was above 1000 nM.

As for `Cc1nn(CC(F)F)c(C)c1Oc1cc(C#N)ccc1-c1ncc(CCN)cn1` [compound 940, 4-[5-(2-aminoethyl)pyrimidin-2-yl]-3-[1-(2,2-difluoroethyl)-3,5-dimethylpyrazol-4-yl]oxybenzonitrile], the IC50 was above 1000 nM. For `CC(C)Cc1cc(Oc2cc(C#N)ccc2-c2ccc(C(O)CN)cc2)n(C)n1` (stereo not drawn) [Compound 212, 4-[4-(2-amino-1-hydroxyethyl)phenyl]-3-[2-methyl-5 (2-methylpropyl)pyrazol-3-yl]oxybenzonitrile], the IC50 is below 10 nM. Next, `Cc1nc(Oc2cc(C#N)ccc2-c2ncc(CN)cn2)cc(N2CCC2)n1` [compound 789, 4-[5-(aminomethyl)pyrimidin-2-yl]-3-[6-(azetidin-1-yl)-2-methylpyrimidin-4-yl]oxybenzonitrile]: 10 to 1000 nM; `Cc1cc(Oc2cc(C#N)ccc2-c2ccc(CCN)cn2)cc(N2CCNC(=O)C2)n1` [compound 456, 4-[5-(2-aminoethyl)pyridin-2-yl]-3-[2-methyl-6-(3-oxopiperazin-1-yl)pyridin-4-yl]oxybenzonitrile]: above 1000 nM. In the case of `Cc1nc(Oc2cc(C#N)ccc2-c2ccc([C@H](O)CN)cn2)cc(N2C[C@@H](C)O[C@@H](C)C2)n1` [compound 523, 4-[5-[(1S)-2-amino-1-hydroxyethyl]pyridin-2-yl]-3-[6-[(2S,6R)-2,6-dimethylmorpholin-4-yl]-2-methylpyrimidin-4-yl]oxybenzonitrile], the IC50 was 10 to 1000 nM. On to `Cc1nnc(-c2cc(Oc3cc(C#N)ccc3-c3ncc(CN)cn3)n(C)n2)s1` [compound 961, 4-[5-(aminomethyl)pyrimidin-2-yl]-3-[2-methyl-5-(5-methyl-1,3,4-thiadiazol-2-yl)pyrazol-3-yl]oxybenzonitrile], for which the IC50 was above 1000 nM. With `Cn1nc(N2CCOCC2)cc1C(=O)c1cc(C#N)ccc1-c1ncc(CCN)cn1` [compound 1027, 4-[5-(2-aminoethyl)pyrimidin-2-yl]-3-(2-methyl-5-morpholin-4-ylpyrazole-3-carbonyl)benzonitrile], the IC50 was below 10 nM. The value for `N#Cc1ccc(-c2ncc(CCN)cn2)c(C(=O)c2cnn(-c3nccs3)c2)c1` [compound 1048, 4-[5-(2-aminoethyl)pyrimidin-2-yl]-3-[1-(1,3-thiazol-2-yl)pyrazole-4-carbonyl]benzonitrile] was below 10 nM; that for `Cc1nc(Oc2cc(C#N)ccc2-c2nc(C)c(C(O)CN(C)C)s2)cc(-c2ccccc2)n1` (stereo not drawn) [Compound 98, 4-[5-[2-(dimethylamino)-1-hydroxyethyl]-4-methyl-1,3-thiazol-2-yl]-3-(2-methyl-6-phenylpyrimidin-4-yl)oxybenzonitrile] was above 1000 nM; that for `CC(C)Cc1cn(Cc2cc(C#N)ccc2-c2ncc(CCN)cn2)nn1` [compound 1184, 4-[5-(2-aminoethyl)pyrimidin-2-yl]-3-[[4-(2-methylpropyl)triazol-1-yl]methyl]benzonitrile] was below 10 nM. Turning to `N#Cc1ccc(-c2ccc(CCN)cc2)c(Oc2cc(N3CCOCC3)cnn2)c1` [Compound 145, 4-[4-(2-aminoethyl)phenyl]-3-(5-morpholin-4-ylpyridazin-3-yl)oxybenzonitrile], the IC50 was 10 to 1000 nM. Next, `Cc1nc(C(C)C)cn1Cc1cc(C#N)ccc1-c1ncc(CN)cn1` [compound 1172, 4-[5-(aminomethyl)pyrimidin-2-yl]-3-[(2-methyl-4-propan-2-ylimidazol-1-yl)methyl]benzonitrile]: 10 to 1000 nM; `Cc1nc(Oc2cc(C#N)ccc2-c2ccc(CCN)cc2)cc(N2CCOCC2)n1` [Compound 7, 4-[4-(2-Aminoethyl)phenyl]-3-(2-methyl-6-morpholin-4-ylpyrimidin-4-yl)oxybenzonitrile]: below 10 nM.

The values are drawn from patent US20230167073A1 (Teijin Pharma Limited, priority 2020, published 2023).
